Key:
[1] = test system: human peripheral blood-derived M2-like macrophages (phagocytosis of HeLa cells); assay: Cancer cell phagocytosis test of human peripheral blood-derived M2-like macrophages; type: cell-based; conditions: 10 μM in terms of Telratolimod, 1 day, flow cytometry
Description: HeLa cells were labeled with fluorescent label 1 (CellTracker Green CMTPX Dye, ThermoFisher) for 30 minutes, then washed twice with PBS(−), and cultured overnight in medium (RPMI supplemented with 10% fetal bovine serum) containing 2.5 μM doxorubicin.
Telratolimod or CHP:Telratolimod adjusted to a final concentration of 10 μM in terms of Telratolimod was added to the basal medium, and the M2-like macrophages prepared in Test Example 11 were incubated for 1 day. After labeling with fluorescent labeling agent 2 (CellTracker Red CMTPX Dye, ThermoFisher) for 30 minutes, the cells were washed twice with PBS(−). The HeLa cells were added at a half ratio to the M2-like macrophages and co-cultured overnight. The cells were then harvested, and the number of cells co-positive for fluorescent labels 1 and 2 was determined by flow cytometry. The control was supplemented with only medium.

[2] = test system: human peripheral blood-derived TAMs; assay: Polarization test of human peripheral blood-derived TAMs (TNF-α ELISA); type: cell-based; conditions: 30 μM in terms of Telratolimod, 2 days incubation, culture supernatant
Description: (§1) Human peripheral blood-derived CD14-positive monocytes that had been cryopreserved in advance were awake and seeded in a 24-well tissue culture plate at 2×10^5 cells/well in 500 μL of basal medium (RPMI, 10% fetal bovine serum, 50 ng/mL M-CSF) and cultured for 3 days in a 37° C., 5% CO2 incubator, after which 500 μL of basal medium was further added, and the cells were cultured for 3 days. The medium was then replaced with 500 μL of TAM differentiation induction medium prepared by adding 10% fetal bovine serum, 50 ng/mL IL-4, 50 ng/mL IL-6, 50 ng/mL IL-10, 50 ng/mL IL-13, and 5% human AB type male donor defibrinated serum (Veritas) to a separately prepared culture supernatant of human cancer cells, and the cells were cultured for 2 days.
A Telratolimod solution or CHP:Telratolimod solution adjusted to a final concentration of 30 μM in terms of Telratolimod was added to the TAM prepared in Test Example 1, followed by incubation for 2 days, and TNF-α in the culture supernatant was measured by ELISA (BioLegend). The control was supplemented with only medium.

cytokines in serum = assay: Evaluation of cytokine release in mouse allogeneic tumor transplantation model; type: in vivo, mice (C57BL/6JJmsSlc, female); conditions: 84.5 μg i.v., blood after 2 hours, MC38-bearing mice
Description: The allograft model mice used were 10 days after 10^6 cells of the mouse colorectal cancer cell line MC38 were administered intradermally into the dorsal skin of mice (C57BL/6JJmsSlc, female). The Telratolimod solution prepared in Test Example 4 and the CHP:Telratolimod solution prepared in Example 2 were each administered (amount of Telratolimod: 84.5 μg) via tail vein injection to 5 mice per group, and blood was collected after 2 hours. The serum was obtained by centrifugation, and changes in the amount of cytokines were measured using LEGENDplex Mouse Inflammation Panel (BioLegend). Significance tests were performed using one-way ANOVA (*P<0.05, **P<0.01, ***P<0.001, ****P<0.0001).

[3] = test system: human peripheral blood-derived TAMs (phagocytosis of HeLa cells); assay: Cancer cell phagocytosis test of human peripheral blood-derived TAMs; type: cell-based; conditions: 10 μM in terms of Telratolimod, 2 days, doxorubicin-treated HeLa cells, flow cytometry
Description: HeLa cells were labeled with fluorescent label 1 (CellTracker Green CMTPX Dye, ThermoFisher) for 30 minutes, then washed twice with PBS(−), and cultured overnight in medium (RPMI supplemented with 10% fetal bovine serum) containing 1.25 μM doxorubicin.
TAMs were prepared in the same manner as in Test Example 1, and Telratolimod or CHP:Telratolimod adjusted to a final concentration of 10 μM in terms of Telratolimod was added to the basal medium, followed by incubation for 2 days. After labeling with fluorescent labeling agent 2 (CellTracker Red CMTPX Dye, ThermoFisher) for 30 minutes, the cells were washed twice with PBS(−). The doxorubicin-treated HeLa cells were added at a half ratio to the TAMs and co-cultured overnight. The cells were then harvested, and the number of cells co-positive for fluorescent labels 1 and 2 was determined by flow cytometry. The control was supplemented with only medium.

[4] = Examination of encapsulation of TLR7 and TLR8 agonists in CHP nanogel (Example 1); type: physicochemical; conditions: CHP in 6 M urea in PBS(−), stepwise dialysis against PBS(−)
Description: Nine TLR7 and TLR8 agonists (Telratolimod, Motolimod, Vesatolimod, Resiquimod, Imiquimod, CL075, CU-CPT17e, CU-CPT9a, and PF-4878691) were examined for whether they could be encapsulated in CHP nanogel. CHP was dissolved in a 6 M urea solution in PBS(−), and a compound solution was added thereto. Then, stepwise dialysis was performed against PBS(−).

[5] = test system: mouse colon cancer cell line MC38; assay: Antitumor evaluation in mouse allogeneic tumor transplantation model (1); type: in vivo, mice (C57BL/6JJmsSlc, female); conditions: MC38, 84.5 μg Telratolimod i.v. on days 7, 9, 11, 14, 16, 18; day 19
Description: A mouse allogeneic tumor transplantation model was prepared by intradermally administering 10^6 cells of the mouse colon cancer cell line MC38 into the dorsal skin of mice (C57BL/6JJmsSlc, female). Mice on day 7 after cell administration were used. 84.5 μg of CHP:Telratolimod prepared in Example 2 or Telratolimod dissolved in a solubilizing solvent (17.1% polyethylene glycol 300, 4.3% Tween 80, and 8.6% polyoxyethylene hydrogenated castor oil) was administered via tail vein injection, and changes in the concentration of Telratolimod in the blood were measured. Blood was collected from 5 mice per group. After each test drug was administered via tail vein injection, 80 μL of isopropyl alcohol was added to 20 μL of serum collected after 1 minute, 30 minutes, 1 hour, 2 hours, and 6 hours, and bead crushing was performed for 1 minute using a 5 mm diameter stainless steel ball. […] The collected supernatant was analyzed by LS-MS/MS to measure the Telratolimod concentration. […]
An MC38 mouse allogeneic tumor transplantation model was prepared in the same manner as in Test Example 4. […] Tumor sizes were measured on days 7, 9, 11, 14, 16, 18, and 19. The tumor volume was calculated by (long axis×short axis×short axis)/2. […]

[6] = Blood concentration changes in mouse allogeneic tumor transplantation model; type: in vivo, mice (C57BL/6JJmsSlc, female); conditions: 84.5 μg via tail vein injection, MC38-bearing mice, serum 1 min to 6 hours
Description: A mouse allogeneic tumor transplantation model was prepared by intradermally administering 10^6 cells of the mouse colon cancer cell line MC38 into the dorsal skin of mice (C57BL/6JJmsSlc, female). Mice on day 7 after cell administration were used. 84.5 μg of CHP:Telratolimod prepared in Example 2 or Telratolimod dissolved in a solubilizing solvent (17.1% polyethylene glycol 300, 4.3% Tween 80, and 8.6% polyoxyethylene hydrogenated castor oil) was administered via tail vein injection, and changes in the concentration of Telratolimod in the blood were measured. Blood was collected from 5 mice per group. After each test drug was administered via tail vein injection, 80 μL of isopropyl alcohol was added to 20 μL of serum collected after 1 minute, 30 minutes, 1 hour, 2 hours, and 6 hours, and bead crushing was performed for 1 minute using a 5 mm diameter stainless steel ball. Further, 400 μL of an 80% isopropyl alcohol and 20% acetonitrile solution was added and mixed, followed by sonication for 3 minutes, and centrifugation at 12000 g for 5 minutes to collect the supernatant. The collected supernatant was analyzed by LS-MS/MS to measure the Telratolimod concentration. […]

[7] = test system: human peripheral blood-derived M2-like macrophages; assay: Polarization test of human peripheral blood-derived M2-like macrophages (cytokine bead assay); type: cell-based; conditions: 3 μM, 1 day, culture supernatant
Description: as §1, with “M2-like macrophage” for “TAM”, “adding” for “adding 10% fetal bovine serum,”, “IL-10, and” for “IL-10,”, “IL-13” for “IL-13, and 5% human AB type male donor defibrinated serum (Veritas)”, “the basal medium,” for “a separately prepared culture supernatant of human cancer cells,”
A Telratolimod solution or CHP:Telratolimod solution adjusted to a final concentration of 3 μM in terms of Telratolimod was added to the M2-like macrophages prepared in Test Example 11, followed by incubation for 1 day, and TNF-α, IL-1β, IL-6, IL-12p40 (p40 subunit of IL-12), IL-23, and CXCL10 in the culture supernatant were measured using a flow cytometry bead assay kit (LEGENDplex™, BioLegend). The control was supplemented with only medium.

[8] = test system: mouse colorectal cancer cell line CT26; assay: Antitumor evaluation in mouse allogeneic tumor transplantation model (2); type: in vivo, mice (BALB/cCrSlc, female); conditions: Telratolimod 42 μg i.v. days 7, 9, 11, 14, 16, 18, anti-PD-1 antibody 100 μg i.p. days 7, 11, 14, 18
Description: A mouse allogeneic tumor transplantation model was prepared by intradermally administering 10^6 cells of the mouse colorectal cancer cell line CT26 into the dorsal skin of mice (BALB/cCrSlc, female). On days 7, 9, 11, 14, 16, and 18 after cell transplantation, the CHP:Telratolimod solution prepared in Example 2 and the Telratolimod solution prepared in Test Example 4 were each administered via tail vein injection, and on days 7, 11, 14, and 18 after cell transplantation, an anti-PD-1 antibody (RMP1-14, Bio X Cell) solution was administered intraperitoneally, to 5 mice per group (amount of Telratolimod: 42 μg, amount of anti-PD-1 antibody: 100 μg). One group received a combination of the CHP:Telratolimod solution and the anti-PD-1 antibody. Tumor sizes were measured on days 7, 9, 11, 14, 16, 18, and 21. The tumor volume was calculated by (long axis×short axis×short axis)/2. The negative control is an untreated group.

reticulocytes = assay: Blood test in mouse allogeneic tumor transplantation model; type: in vivo; conditions: 84.5 μg i.v. on days 7, 9, 11; blood 1 day after final administration
Description: 10^6 cells of the mouse colorectal cancer cell line MC38 were administered intradermally into the dorsal skin of mice (C57BL/6JJmsSlc, female). After 7 days, 9 days, and 11 days, the Telratolimod solution prepared in Test Example 4 and the CHP:Telratolimod solution prepared in Example 2 were each administered (amount of Telratolimod: 84.5 μg) via tail vein injection to 5 mice per group. One day after the final administration, blood was collected, and changes in red blood cell and reticulocyte counts were measured. Significance tests were performed using one-way ANOVA (*P<0.05, **P<0.01, ***P<0.001, ****P<0.0001).

[9] = test system: macrophages infiltrating into the tumors (MC38); assay: Evaluation of TAM polarization in mouse allogeneic tumor transplantation model; type: in vivo, mice; conditions: MC38, 84.5 μg i.v. on days 7, 9, 11; tumors 1 day after final administration; flow cytometry
Description: An MC38 mouse allogeneic tumor transplantation model was prepared in the same manner as in Test Example 6, and on days 7, 9, and 11 after cell transplantation, the CHP:Telratolimod solution prepared in Example 2 and the Telratolimod solution prepared in Test Example 4 were each administered via tail vein injection to 5 mice per group (amount of Telratolimod: 84.5 μg). One day after the final administration, the tumors were excised, and macrophages infiltrating into the tumors were measured by flow cytometry. Significance tests were performed using one-way ANOVA (*P<0.05, **P<0.01, ***P<0.001, ****P<0.0001).

Compound: CCCCCCCCCCCCCCCCCC(=O)NCCCCOn1c(CCCC)nc2c(N)nc3ccccc3c21 [Telratolimod]
- Phagocytosis rate [1]: 9.7%
- TNF-α [2]: 700 pg/mL
- IFN-β in serum (cytokines in serum): rapid increases
- IL-6 in serum (cytokines in serum): rapid increases
- MCP-1 in serum (cytokines in serum): rapid increases
- Phagocytosis rate [3]: 5.5%
- whether the compound could be encapsulated in CHP nanogel and formed into a solution [4]: could be stably encapsulated in the CHP nanogel and formed into a solution
- growth inhibition compared to the solvent control [5]: 49%
- blood concentration of Telratolimod over time [6]: rapidly decreased within 30 minutes after administration
- CXCL10 [7]: 140 ± 20 pg/mL
- IL-1β [7]: 2.3 ± 0.64 pg/mL
- IL-6 [7]: 3100 ± 380 pg/mL
- IL-12p40 [7]: 59 ± 22 pg/mL
- IL-23 [7]: 1.4 ± 0.35 pg/mL
- TNF-α [7]: 40 ± 7.3 pg/mL
- antitumor effect (tumor volume) [8]: limited
- change in reticulocytes (bone marrow toxicity indicator) (reticulocytes): significant decrease
- expression of ARG1 (M2-like macrophage marker) [9]: tended to decrease
- expression of iNOS (M1-like macrophage marker) [9]: significantly increased
